Source: the supplement of paper PMC11208160

Assay: recombinant barcode read abundance after kanamycin selection (control-corrected) (log10(CPM+1)); higher = more efficient recombination; sequences stand for … in AGTGCAGAGAAAATCGGCCAGTTTTCTCTGCCTGCAGTCCGCATGCCGT…AGATTTATGCAGCGGACTGCCTTTCTCCCAAAGTGATAAACCGGACAGTATCATGGACCGGTTTTCCCGGTAATCCGTATTTGCAAGGTTGGTTTCACT; site = the 11-nt target
Procedure, shortened: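 Reported as log10(CPM+1), each value stands for recombination efficiency. That efficiency is the averaged, control-corrected counts per million of barcodes found at recombinant junctions. Cells from a pooled E. coli library pairing targets with IS621 bridge RNA target-binding loops were plated twice on chloramphenicol/ampicillin LB agar (control) and twice on chloramphenicol/ampicillin/kanamycin with 0.1 mM IPTG.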
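Also: IS621 recombinase and bridge RNA in Escherichia coli cells.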

Row | Sequence | recombinant barcode read abundance (log10)
1 | GTGAGGCCTTGGGTTCTAACCTGTTGCCT (site TTGAGGCCTAG) | 0.0445
2 | GTGAGGTCTTGGGTTCTAACCTGTTGCCT (site GTGAGGTCTAA) | 0.107
3 | GTGAGGTCTTGGGTTCTAACCTGTTGCCT (site GTGAGGTCTAC) | 0.343
4 | GTGAGGTCTTGGGTTCTAACCTGTTGCCT (site GTGAGGTCTAG) | 1.62
5 | GTGAGGTCTTGGGTTCTAACCTGTTGCCT (site GTGAGGTCTAT) | 0.442
6 | GTGAGTCCTTGGGTTCTAACCTGTTGCGT (site GTGAGTCCTAC) | 2.61
7 | GTGAGTCCTTGGGTTCTAACCTGTTGCGT (site GTTGGTCCTAC) | 0.0363
8 | GTGATCCCTTGGGTTCTAACCTGTTGCTG (site GTGAACTCTCA) | 0.0648
9 | GTGATCCCTTGGGTTCTAACCTGTTGCTG (site GTGATCCCTCA) | 1.87
10 | GTGCACACTTGGGTTCTAACCTGTTGCGG (site GTGCACACTCC) | 2.44
11 | GTGCACACTTGGGTTCTAACCTGTTGCGG (site GTGCACTCTCC) | 0.322
12 | GTGCAGACTTGGGTTCTAACCTGTTGCCT (site GTACAGACTAG) | 2.5
13 | GTGCAGACTTGGGTTCTAACCTGTTGCCT (site GTCCAGACTAG) | 0.483
14 | GTGCAGACTTGGGTTCTAACCTGTTGCCT (site GTGCAGACTAG) | 2.05
15 | GTGCAGACTTGGGTTCTAACCTGTTGCCT (site GTTCAGACTAG) | 0.367
16 | GTGCCCGCTTGGGTTCTAACCTGTTGCGG (site GTGCCCGCTCC) | 1.11
17 | GTGCCCGCTTGGGTTCTAACCTGTTGCGG (site GTGCCCTCTCG) | 0.205
18 | GTGCGCCCTTGGGTTCTAACCTGTTGCGT (site GTGCGCCCTAC) | 2.13
19 | GTGCGCCCTTGGGTTCTAACCTGTTGCGT (site GTGCGCCCTCC) | 0.617
20 | GTGGAGGCTTGGGTTCTAACCTGTTGCCT (site ATGGCGGCTAG) | 0.371
21 | GTGGAGGCTTGGGTTCTAACCTGTTGCCT (site GTGGAGGCTAG) | 1.5
22 | GTGGAGTCTTGGGTTCTAACCTGTTGCGT (site GTGGAGTCTAC) | 1.49
23 | GTGGAGTCTTGGGTTCTAACCTGTTGCGT (site TATCCTCCTCG) | 0.0104
24 | GTGGCGTCTTGGGTTCTAACCTGTTGCCT (site GTGGCGTCTAG) | 1.79
25 | GTGGCGTCTTGGGTTCTAACCTGTTGCCT (site TTGGCCTCTAG) | 0.104
26 | GTGGGCGCTTGGGTTCTAACCTGTTGCCT (site GTAGGCGCTAG) | 0.973

Row | Sequence | recombinant barcode read abundance (log10)
27 | GTGGGCGCTTGGGTTCTAACCTGTTGCCT (site GTCGGCGCTAG) | 0.165
28 | GTGGGCGCTTGGGTTCTAACCTGTTGCCT (site GTGGGCGCTAG) | 1.33
29 | GTGGGCGCTTGGGTTCTAACCTGTTGCCT (site GTTGGCGCTAG) | 0.524
30 | GTGGTAACTTGGGTTCTAACCTGTTGCCT (site GTGGTAACTAG) | 0.647
31 | GTGGTAACTTGGGTTCTAACCTGTTGCCT (site GTGGTACCTAG) | 0.19
32 | GTGGTAACTTGGGTTCTAACCTGTTGCCT (site GTGGTAGCTAG) | 0.3
33 | GTGGTAACTTGGGTTCTAACCTGTTGCCT (site GTGGTATCTAG) | 0.0678
34 | GTGTACTCTTGGGTTCTAACCTGTTGCTT (site GTGGACTCTTA) | 0.0612
35 | GTGTACTCTTGGGTTCTAACCTGTTGCTT (site GTGTACTCTAA) | 1.35
36 | GTGTATCCTTGGGTTCTAACCTGTTGCAT (site GTGTATCCTAT) | 1.7
37 | GTGTATCCTTGGGTTCTAACCTGTTGCAT (site GTGTCTCCTAT) | 0.279
38 | GTGTATCCTTGGGTTCTAACCTGTTGCAT (site GTGTGTCCTAT) | 0.0301
39 | GTGTATCCTTGGGTTCTAACCTGTTGCAT (site GTGTTTCCTAT) | 0.0918
40 | GTGTGAACTTGGGTTCTAACCTGTTGCCG (site GAGTTAACTCG) | 0.0504
41 | GTGTGAACTTGGGTTCTAACCTGTTGCCG (site GTGTGAACTCG) | 0.992
42 | GTGTTTGCTTGGGTTCTAACCTGTTGCCT (site GAGTTTGCTAG) | 0.0456
43 | GTGTTTGCTTGGGTTCTAACCTGTTGCCT (site GCGTTTGCTAG) | 0.0586
44 | GTGTTTGCTTGGGTTCTAACCTGTTGCCT (site GGGTTTGCTAG) | 0.0616
45 | GTGTTTGCTTGGGTTCTAACCTGTTGCCT (site GTGTTTGCTAG) | 0.596
46 | GTTAGAACTTGGGTTCTAACCTGTTGCTT (site CCATTGTCTCG) | 0.0117
47 | GTTAGAACTTGGGTTCTAACCTGTTGCTT (site GTTAGAACTAA) | 0.123
48 | GTTCAAACTTGGGTTCTAACCTGTTGCAT (site ATTCAAACTAG) | 0.245
49 | GTTCAAACTTGGGTTCTAACCTGTTGCAT (site GTTCAAACTAT) | 1.2
50 | GTTCAGACTTGGGTTCTAACCTGTTGCCT (site GTACAGACTAG) | 1.15
51 | GTTCAGACTTGGGTTCTAACCTGTTGCCT (site GTCCAGACTAG) | 0.948
52 | GTTCAGACTTGGGTTCTAACCTGTTGCCT (site GTGCAGACTAG) | 0.0632

Row | Sequence | recombinant barcode read abundance (log10)
53 | GTTCAGACTTGGGTTCTAACCTGTTGCCT (site GTTCAGACTAG) | 1.58
54 | GTTCCCTCTTGGGTTCTAACCTGTTGCTT (site GCTCACTCTAA) | 0.245
55 | GTTCCCTCTTGGGTTCTAACCTGTTGCTT (site GTTCCCTCTAA) | 1.9
56 | GTTCGGACTTGGGTTCTAACCTGTTGCGG (site GATCGGACTCC) | 0.634
57 | GTTCGGACTTGGGTTCTAACCTGTTGCGG (site GTTCGGACTCC) | 2.69
58 | GTTGCGGCTTGGGTTCTAACCTGTTGCCT (site GTTACGGCTAG) | 0.44
59 | GTTGCGGCTTGGGTTCTAACCTGTTGCCT (site GTTCCGGCTAG) | 0.0471
60 | GTTGCGGCTTGGGTTCTAACCTGTTGCCT (site GTTGCGGCTAG) | 0.898
61 | GTTGCGGCTTGGGTTCTAACCTGTTGCCT (site GTTTCGGCTAG) | 0.34
62 | GTTGGAGCTTGGGTTCTAACCTGTTGCAG (site GTTGGAGCTCT) | 2.24
63 | GTTGGAGCTTGGGTTCTAACCTGTTGCAG (site TATGGAGCTCT) | 0.146
64 | GTTGGAGCTTGGGTTCTAACCTGTTGCCT (site GTTAGAGCTAG) | 1.97
65 | GTTGGAGCTTGGGTTCTAACCTGTTGCCT (site GTTCGAGCTAG) | 0.487
66 | GTTGGAGCTTGGGTTCTAACCTGTTGCCT (site GTTGGAGCTAG) | 2.35
67 | GTTGGAGCTTGGGTTCTAACCTGTTGCCT (site GTTTGAGCTAG) | 0.304
68 | GTTTAGTCTTGGGTTCTAACCTGTTGCCT (site GTTTAATCTAG) | 0.159
69 | GTTTAGTCTTGGGTTCTAACCTGTTGCCT (site GTTTAGTCTAG) | 1.01
70 | GTTTATACTTGGGTTCTAACCTGTTGCGT (site GATGATACTAC) | 0.0203
71 | GTTTATACTTGGGTTCTAACCTGTTGCGT (site GTTTATACTAC) | 0.749
72 | GTTTCAACTTGGGTTCTAACCTGTTGCCA (site CAACACCCTAT) | 0.0582
73 | GTTTCAACTTGGGTTCTAACCTGTTGCCA (site GTTTCAACTTG) | 0.061
74 | GTTTCAACTTGGGTTCTAACCTGTTGCGT (site AAGAACTCTCG) | 0.18
75 | GTTTCAACTTGGGTTCTAACCTGTTGCGT (site GTTTCAACTAC) | 0.729
76 | GTTTCCTCTTGGGTTCTAACCTGTTGCCG (site GGATCCTCTCG) | 0.251
77 | GTTTCCTCTTGGGTTCTAACCTGTTGCCG (site GTTTCCTCTCG) | 0.78
